# Results from patent US20240034785A1, “RXR-ALPHA BINDERS AND RXR-ALPHA/PLK1 MODULATORS” (NUCMITO PHARMACEUTICALS CO. LTD., priority 2020, published 2024).
# Assays:
# QSG-7701 cells = test: Western blot analysis of QSG-7701 normal liver cells; type: cell-based, human; conditions: 12 hr (FIG. 61)
# HepG2 cells [1] = test: Centrosome immunofluorescence in metaphase HepG2 cells; type: cell-based, human
# Experimental: Cells mounted on glass slides were fixed with methanol at −20° C. for 10 min, then permeabilized with 0.05% Triton X-100 in a PBS buffer for 8 min at 4° C., and blocked with 1% bovine serum in PBS for 30 min at room temperature, followed by incubation with primary antibodies at room temperature for 3 hr and detected by FITC-labeled anti-IgG (1:200), anti-goat IgG conjugated with Cy3 (1:200) at room temperature for 1 hr. The cells were costained with 40,6-diamidino-2-phenylindole (DAPI) (1:10,000 dilution) to visualize nuclei. The images were taken under a LEICA TCS SP8 confocal laser scanning microscope system or an LSM-510 confocal laser scanning microscope system.
# [2] = target: T1, p-RXRα and PLK1 at the centrosome (Homo sapiens, UniProt P19793); test: In situ proximity ligation assay (PLA) in HepG2 cells; type: cell-based; conditions: RO-3306 10 μM for 30 min or compound A1 10 μM for 2 hr (FIG. 56)
# T1 construct: endogenous in cells; host or cells: HepG2
# T1 sequence (P19793 1-462): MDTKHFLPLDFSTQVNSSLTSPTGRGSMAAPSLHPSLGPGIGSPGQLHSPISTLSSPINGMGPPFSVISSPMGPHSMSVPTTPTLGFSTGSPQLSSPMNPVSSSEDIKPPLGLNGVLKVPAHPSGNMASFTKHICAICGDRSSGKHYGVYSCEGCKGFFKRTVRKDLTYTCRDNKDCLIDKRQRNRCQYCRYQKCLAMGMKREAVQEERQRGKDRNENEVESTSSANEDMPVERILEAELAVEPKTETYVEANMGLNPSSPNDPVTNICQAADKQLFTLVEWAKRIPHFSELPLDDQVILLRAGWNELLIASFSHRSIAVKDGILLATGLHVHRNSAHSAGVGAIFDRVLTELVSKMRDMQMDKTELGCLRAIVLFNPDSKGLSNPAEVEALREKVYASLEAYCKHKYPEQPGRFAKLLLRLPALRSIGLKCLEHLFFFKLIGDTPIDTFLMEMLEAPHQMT
# Experimental: An in situ proximity ligation assay (PLA) was performed in HeLa cells and HepG2 by using a DOULINK™ assay kit. Briefly, cells mounted on glass slides were fixed with methanol at −20° C. for 5 min, then permeabilized with 0.05% Triton X-100 in a PBS buffer for 8 min at 4° C., and blocked with a blocking solution for 60 min at 37° C., followed by incubation with primary antibodies for 60 min at 37° C. The slides were then washed three times with wash buffer A, and PLA labeled secondary antibodies (anti-mouse, minus; anti-rabbit, plus) were added and incubated for 60 min at 37° C. The slides were washed two times with wash buffer A and a ligation solution including a ligase was added for 30 min at 37° C. After ligation, the slides were washed two times with wash buffer A and followed by incubation with an amplification buffer including a polymerase for 100 min at 37° C. After amplification, the slides were washed two times with 1×wash buffer B and one time in 0.01×wash buffer B. Finally, the slides were mounted using a minimal volume of a mounting medium with DAPI and analyzed in a confocal microscope after 15 min.
# HepG2 cells [3] = test: Western blot analysis of liver cancer HepG2 cells; type: cell-based, human; conditions: indicated concentration for 12 hr (FIG. 61)
# cancer cells = test: Mitotic progression of cancer cells (FACS analysis); type: cell-based; parameters: inhibitory effect on mitotic progression: RXRα dependence and other cancer cell lines (FACS): dose or concentration left out as unconfirmed
# Experimental: Cells were harvested by trypsin digestion, washed with PBS, and fixed with ice-cold 70% ethanol overnight at 4° C. The fixed cells were then washed twice in PBS and treated for 10 min at room temperature with 0.5 μg/mL 4-6-diamidino-2-phenylindole (DAPI) in PBS and analyzed on a FACSCAN™ flow cytometer. Flow cytometry data were analyzed using CYTEXPERT.
# [4] = system: HepG2 liver cancer and THLE-2 nontumorous liver cells; test: Western blot analysis of HepG2 and THLE-2 cells; type: cell-based, human; conditions: 10 μM for 12 hr (FIG. 68)
# HeLa cells = test: Asynchronous or thymidine-synchronized HeLa cells incubated with compound A1; type: cell-based, human
# Experimental: Cells were synchronized at GUS boundary by a double thymidine block. Briefly, cells cultured in a medium containing 2 mM thymidine for 16 hr were released into a normal medium for 8 hr, subjected to a second thymidine block for 16 hr, and then released into a fresh medium again. Alternatively, cells were synchronized at prometaphase by a thymidine-nocodazole arrest (an 18-hr thymidine arrest and a 5-hr release, followed by a 5-hr 100 ng/mL nocodazole arrest).
# cancer cell lines = test: Western blot analysis of mitotic arrest, apoptosis and SAC activation in cancer cell lines; type: cell-based, human
smiles,measurement,setting,value
"COc1ccc(CC(=O)N/N=C/c2c(O)ccc3ccccc23)cc1 [Compound A1, (E)-N′-((2-hydroxynaphthalen-1-yl)methylene)-2-(4-methoxyphenyl)acetohydrazide]",effect in p-RXRα-negative noncancerous QSG-7701 cells,QSG-7701 cells,but not p-RXRα-negative noncancerous QSG-7701 cells
same,centrosomal aberrations,HepG2 cells [1],caused centrosomal aberrations
same,level of PLK1-pT210 at the centrosome,"HepG2 cells [1]; HepG2 cells, 10 μM for 2 hr after release from TT block for 10 hr (FIG. 57)",reduced the level of PLK1-pT210
same,centrosome maturation (γ-tubulin at the centrosomes),"HepG2 cells [1]; HepG2 cells, 10 μM for 2 hr after release from TT block for 10 hr (FIG. 58)",suppressed centrosome maturation
same,in situ interaction between p-RXRα and PLK1 at the centrosome (PLA),[2],inhibited the in situ interaction
same,effect in p-RXRα-positive HepG2 liver cancer cells,HepG2 cells [3],potent effect
same,mitotic progression of cancer cells,cancer cells,inhibited mitotic progression of cancer cells
same,inhibitory effect on mitotic progression: RXRα dependence and other cancer cell lines (FACS),cancer cells; indicated cell lines,RXRα dependent and observed in many other cancer cell lines
same,"inducing G2/M arrest, SAC activation, and apoptosis in HepG2 versus THLE-2 cells",[4],differential effects
same,effectiveness in asynchronous versus synchronized cells,"HeLa cells; HeLa cells, 10 μM for 24 hr (FIG. 64)",more effective in asynchronous cells (AS) than in synchronized GUS cells
same,cell cycle progression and fate of synchronized HeLa cells upon treatment,HeLa cells; synchronized HeLa cells,"progressed through S phase normally and arrested in mitotic phase, which was followed by apoptosis"
same,apoptosis of cancer cells,cancer cell lines,induced apoptosis of cancer cells in a dose-dependent and RXRα-dependent manner
same,"activation of the spindle assembly checkpoint (SAC), mobility-shifted BubR1","cancer cell lines; FIGS. 61, 62 and 68",accompanied with the activation of the spindle assembly checkpoint (SAC)
same,nuclear morphology (mitotic catastrophe),cancer cell lines; cancer cells treated with compound A1,"exhibited multi-lobular, giant nuclear and/or highly fragmented/bursted nuclei"
same,induction of mitotic arrest and apoptosis,"cancer cell lines; various cancer cell lines (HepG2, Bel-7402, SK-Hep-1), 12 hr (FIGS. 61 and 62)",observed
